Results reported in publication PMC9657321, “Identification of Boronate-Containing Diarylpyrimidine Derivatives as Novel HIV-1 Non-Nucleoside Reverse Transcriptase Inhibitors” (Molecules, 2022).

Legend:
[1] = biological target: T1, recombinant wild-type HIV-1 RT enzyme (Human immunodeficiency virus type 1 group M subtype B, UniProt P03366); experiment: HIV-1 RT inhibition assay (ELISA, Roche RT assay kit); format: biochemical
T1 construct: recombinant wild-type HIV-1 RT enzyme; purchased Roche (Basel, Switzerland)
Protocol: The HIV-1 RT inhibition assay was performed by using an RT assay kit produced by Roche (Basel, Switzerland).
The biotin-labeled dNTPs were incorporated into the cDNA chain in the presence of RT and bound to streptavidin. The washing buffer was used to wash the unbound dNTPs and add the anti-DIG-POD to the MTPs.
The peroxide substrate (ABST) solution was added to the MTPs, when the unbound anti-DIG-PODs were washed out. […] The absorbance of the sample was determined at OD405 nm using a microtiter plate ELISA reader. The percentage inhibitory activity of RT inhibitors was calculated according to the following formula: % inhibition = [O.D. value with RT but without inhibitors − O.D. value with RT and inhibitors]/[O.D. value with RT and inhibitors − O.D. value without RT and inhibitors].

[2] = Cytotoxicity in mock-infected MT-4 cells, MTT method; format: cell-based; settings: human
Protocol: The 3-(4,5-dimethylthiazol-2-yl)-2,5-diphenyltetrazolium bromide (MTT) method was used to evaluate the antiviral activity and cytotoxicity of the synthesized compounds as previously described. At the beginning of each experiment, stock solutions (10× final concentration) of test compounds were added in 25 μL volumes to two series of triplicate wells for allowing the simultaneous evaluation of their effects on mock- and HIV-infected cells. The serial 5-fold dilutions of the compounds were made in flat-bottomed 96-well microtiter trays directly, including untreated control HIV-1 and mock infected cell samples for each sample using a Biomek 3000 robot (Beckman Instruments, Fullerton, CA, USA). HIV-1 (IIIB) and mutant HIV-1 strains (RES056, F227L/V106A, L100I, K103N, E138K, Y181C, and Y188L) stock (50 μL at 100–300 CCID50) (50% cell culture infectious dose) or culture medium was added to either the infected or mock-infected wells of the microtiter tray. Mock-infected cells were used to evaluate the effect on uninfected cells to assess the cytotoxicity of the test compounds. Exponentially growing MT-4 cells were centrifuged for […] at 1000 rpm (Eppendorf 5424, Hamburg, Germany) and then the supernatant was discarded. The MT-4 cells were resuspended at 6 × 10^5 cells/mL and 50 μL aliquots were transferred to the microtiter tray wells. At 5 days after infection, the viability of mock- and HIV-infected cells was determined spectrophotometrically by means of MTT assay.
(§1) The MTT assay is based on the reduction of yellow-colored MTT (Acros Organics, Geel, Belgium) by mitochondrial dehydrogenase of metabolically active cells to form a blue-purple formazan. The absorbances were read in an eight-channel computer-controlled photometer at the wavelengths of 540 and 690 nm. All data were calculated using the median optical density (OD) value of three wells.

wild-type HIV-1 (IIIB) = experiment: microbe, parasite or virus in culture; format: cell-based; settings: for EC50: Human immunodeficiency virus 1, MT4, MT-4 cells, HIV-1 IIIB, MTT method; for RF IIIB: ratio EC50(resistant strain)/EC50(wild-type strain); for SI IIIB: selectivity index, ratio CC50/EC50, IIIB
Protocol: (§2) All data were calculated using the median optical density (OD) value of three wells.

[3] = test system: HIV-1 Y181C mutant strain; experiment: microbe, parasite or virus in culture; format: cell-based; settings: for EC50: Human immunodeficiency virus 1, MT4, read-out: EC50 Y181C, MT-4 cells, Y181C, MTT method; for RF Y181C: ratio EC50 (resistant viral strain)/EC50 (wild-type viral strain); for SI Y181C: ratio CC50/EC50, Y181C
Protocol: as §2

[4] = test system: HIV-1 K103N mutant strain; experiment: microbe, parasite or virus in culture; format: cell-based; settings: for EC50: Human immunodeficiency virus 1, MT4, read-out: EC50 K103N, MT-4 cells, K103N, MTT method; for RF K103N: ratio EC50 (resistant viral strain)/EC50 (wild-type viral strain); for SI K103N: ratio CC50/EC50, K103N
Protocol: as §2

[5] = test system: HIV-1 double-mutant strain RES056 (K103N/Y181C); experiment: microbe, parasite or virus in culture; format: cell-based; settings: for EC50: Human immunodeficiency virus 1, MT4, read-out: EC50 RES056; for RF RES056: ratio EC50(resistant strain)/EC50(wild-type strain); for SI RES056: selectivity index, ratio CC50/EC50, RES056
Protocol: as §2

[6] = test system: HIV-1 F227L + V106A mutant strain; experiment: microbe, parasite or virus in culture; format: cell-based; settings: for EC50: Human immunodeficiency virus 1, MT4, read-out: EC50 F227L + V106A; for RF F227L + V106A: ratio EC50 (resistant viral strain)/EC50 (wild-type viral strain); for SI F227L + V106A: ratio CC50/EC50, F227L + V106A
Protocol: as §2

[7] = test system: HIV-1 E138K mutant strain; experiment: microbe, parasite or virus in culture; format: cell-based; settings: for EC50: Human immunodeficiency virus 1, MT4, read-out: EC50 E138K; for RF E138K: ratio EC50 (resistant viral strain)/EC50 (wild-type viral strain); for SI E138K: ratio CC50/EC50, E138K
Protocol: as §2

[8] = test system: HIV-1 Y188L mutant strain; experiment: microbe, parasite or virus in culture; format: cell-based; settings: for EC50: Human immunodeficiency virus 1, MT4, read-out: EC50 Y188L; for RF Y188L: ratio EC50 (resistant viral strain)/EC50 (wild-type viral strain); for SI Y188L: ratio CC50/EC50, Y188L
Protocol: as §2

[9] = test system: HIV-1 L100I mutant strain; experiment: microbe, parasite or virus in culture; format: cell-based; settings: for EC50: Human immunodeficiency virus 1, MT4, read-out: EC50 L100I; for RF L100I: ratio EC50 (resistant viral strain)/EC50 (wild-type viral strain); for SI L100I: ratio CC50/EC50, L100I
Protocol: as §2

[10] = test system: wild-type and mutant HIV-1 strains; experiment: Anti-HIV-1 activity in MT-4 cells, MTT method, panel of strains (range over strains); format: cell-based; settings: Human immunodeficiency virus 1, MT4, read-out: EC50 values over wild-type and a panel of single mutations
Protocol: […]. […] […].
The 3-(4,5-dimethylthiazol-2-yl)-2,5-diphenyltetrazolium bromide (MTT) method was used to evaluate the antiviral activity and cytotoxicity of the synthesized compounds as previously described. At the beginning of each experiment, stock solutions (10× final concentration) of test compounds were added in 25 μL volumes to two series of triplicate wells for allowing the simultaneous evaluation of their effects on mock- and HIV-infected cells. The serial 5-fold dilutions of the compounds were made in flat-bottomed 96-well microtiter trays directly, including untreated control HIV-1 and mock infected cell samples for each sample using a Biomek 3000 robot (Beckman Instruments, Fullerton, CA, USA). […] At 5 days after infection, the viability of mock- and HIV-infected cells was determined spectrophotometrically by means of MTT assay.
as §1

Row | SMILES | IC50 [1] [nM] | CC50 at 5 days [2] [µM] | EC50 (wild-type HIV-1 (IIIB)) [nM] | RF IIIB (wild-type HIV-1 (IIIB)) | EC50 [3] [nM] | RF Y181C [3] | EC50 [4] [nM] | RF K103N [4] | EC50 [5] [µM] | RF RES056 [5] | EC50 [6] [µM] | RF F227L + V106A [6] | EC50 [7] [nM] | RF E138K [7] | EC50 [8] [µM] | RF Y188L [8] | EC50 [9] [nM] | RF L100I [9] | SI Y181C [3] | SI K103N [4] | also measured
1 | Cc1cc(C#N)cc(C)c1Oc1nc(Nc2ccc(B3OC(C)(C)C(C)(C)O3)cc2)nc2ccsc12 [Compound 3a, 3,5-Dimethyl-4-((2-((4-(4,4,5,5-tetramethyl-1,3,2-dioxaborolan-2-yl)phenyl)amino)thieno [3,2-d]pyrimidin-4-yl)oxy)benzonitrile] | 354 ± 43 | 27.4 ± 1.2 | 64 ± 21 | 1.0 | 6290 ± 3270 | 98.8 | 81 ± 8 | 1.3 | > 27.4 | > 431 | 4.95 ± 1.98 | 77.8 | 193 ± 77 | 3.0 | 6.02 ± 3.14 | 94.7 | 2510 ± 155 | 39.4 |  |  | 
2 | Cc1cc(/C=C/C#N)cc(C)c1Oc1nc(Nc2ccc(B3OC(C)(C)C(C)(C)O3)cc2)nc2sccc12 [Compound 4b, (E)-3-(3,5-Dimethyl-4-((2-((4-(4,4,5,5-tetramethyl-1,3,2-dioxaborolan-2-yl)phenyl)amino)thieno [2,3-d]pyrimidin-4-yl)oxy)phenyl)acrylonitrile] | 47 ± 1 | 22.1 ± 3.69 | 10 ± 3 | 1.0 | 675 ± 188 | 65.9 | 8 ± 2 | 0.8 | 2.3 ± 0.66 | 224 | 3.21 ± 1.97 | 313.5 | 30 ± 9 | 3.0 | 2.52 ± 0.238 | 246.1 | 280 ± 55 | 27.4 | 33 | 2866 | SI IIIB (wild-type HIV-1 (IIIB)): 2161; fold more potent than 3b ([5]; RES056 EC50, versus 3b): 75 fold; SI RES056 [5]: 10; SI F227L + V106A [6]: 7; SI E138K [7]: 732; SI Y188L [8]: 9; SI L100I [9]: 79
3 | Cc1cc(C#N)cc(C)c1Oc1nc(Nc2ccc(B3OC(C)(C)C(C)(C)O3)cc2)nc2c1COC2 [Compound 3c, 3,5-Dimethyl-4-((2-((4-(4,4,5,5-tetramethyl-1,3,2-dioxaborolan-2-yl)phenyl)amino) -5,7-dihydrofuro [3,4-d]pyrimidin-4-yl)oxy)benzonitrile] | 228 ± 45 | 94.8 ± 32.2 | 51 ± 15 | 1.0 | 4370 ± 2190 | 85.1 | 120 ± 19 | 2.3 | 25.8 ± 7.93 | 503 | 9.1 ± 2.64 | 177.2 | 130 ± 41 | 2.5 | 4.52 ± 1.54 | 87.9 | 2430 ± 302 | 47.3 | 22 | 792 | melting point: 149 to 151 °C; SI IIIB (wild-type HIV-1 (IIIB)): 1847; SI RES056 [5]: < 1; SI F227L + V106A [6]: 10; SI E138K [7]: 731; SI Y188L [8]: 21; SI L100I [9]: 39
4 | Cc1cc(/C=C/C#N)cc(C)c1Oc1nc(Nc2ccc(B3OC(C)(C)C(C)(C)O3)cc2)nc2c1COC2 [Compound 4c, (E)-3-(3,5-Dimethyl-4-((2-((4-(4,4,5,5-tetramethyl-1,3,2-dioxaborolan-2-yl)phenyl)amino)-5,7-dihydrofuro [3,4-d]pyrimidin-4-yl)oxy)phenyl)acrylonitrile] | 200 ± 28 | 80.3 ± 31.3 | 14 ± 6 | 1.0 | 1280 ± 489 | 94.2 | 26 ± 5 | 1.9 | 13.9 ± 9.32 | 1018 | 5.88 ± 2.52 | 431.5 | 39 ± 18 | 2.9 | 3.96 ± 0.894 | 290.3 | 553 ± 152 | 40.6 | 63 | 3110 | melting point: 134 to 136 °C; SI IIIB (wild-type HIV-1 (IIIB)): 5890; SI RES056 [5]: 6; SI F227L + V106A [6]: 14; SI E138K [7]: 2036; SI Y188L [8]: 20; SI L100I [9]: 145
5 | Cc1cc(/C=C/C#N)cc(C)c1Oc1nc(Nc2ccc(B3OC(C)(C)C(C)(C)O3)cc2)nc2ccsc12 [Compound 4a, (E)-3-(3,5-Dimethyl-4-((2-((4-(4,4,5,5-tetramethyl-1,3,2-dioxaborolan-2-yl)phenyl)amino)thieno [3,2-d]pyrimidin-4-yl)oxy)phenyl)acrylonitrile] | 167 ± 31 | > 238 | 9 ± 2 | 1.0 |  | 74.8 | 5 ± 6 | 0.6 | > 238 | > 27516 | > 1.81 | 209.7 | 21 ± 7 | 2.4 | 1.61 ± 0.508 |  | 186 ± 32 | 21.4 | > 368 | > 47,170 | EC50 [10]: 5 to 648 nM; SI E138K [7]: > 11,261; SI Y188L [8]: > 148; fold more potent than NVP ([9]; L100I EC50, versus NVP): 3.3 fold; SI L100I [9]: > 1285
